Results as given in article PMC7307906, “Macrocyclic Modalities Combining Peptide Epitopes and Natural Product Fragments” (Journal of the American Chemical Society, 2020).
Where no end group is shown, it is not given here. [ ]: non-standard residue; d: D form. N‑methyl fused di‑pyrrolidine (I) = not defined here; NMeF = CN[C@@H](Cc1ccccc1)C(=O)O; NMeL = CN[C@@H](CC(C)C)C(=O)O

T1: SPSB2 (Homo sapiens, UniProt Q99619)
T1 chain: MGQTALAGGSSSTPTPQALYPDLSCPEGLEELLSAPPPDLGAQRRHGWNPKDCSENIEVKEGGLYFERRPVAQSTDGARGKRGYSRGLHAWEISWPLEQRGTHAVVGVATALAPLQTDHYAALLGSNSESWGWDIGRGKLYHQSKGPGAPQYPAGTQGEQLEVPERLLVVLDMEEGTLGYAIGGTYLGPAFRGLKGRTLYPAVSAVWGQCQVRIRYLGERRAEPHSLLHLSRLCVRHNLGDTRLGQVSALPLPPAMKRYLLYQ


How the values were obtained:
human MC4R [1] = biological target: T2, human MC4R (Homo sapiens, UniProt P32245); test: Melanocortin receptor radioligand binding (SPA, [125I]-NDP-α-MSH displacement), MC4R; details: competitive binding, mean (± SEM) of at least three independent experiments, read-out: IC50 hMC4R binding
T2 construct: expressed in transfected cells

human MC4R [2] = biological target: T2, human MC4R; test: cAMP assay (LANCE) in T-Rex-293 cells expressing MC4R; format: cell-based; details: for EC50: cAMP assay, mean (± SEM) of at least three independent experiments, read-out: EC50 hMC4R cAMP
human MC3R [3] = biological target: T3, human MC3R (Homo sapiens, UniProt P41968); test: cAMP assay (LANCE) in T-Rex-293 cells expressing MC3R; format: cell-based; details: for EC50: cAMP assay, mean (± SEM) of at least three independent experiments, read-out: EC50 hMC3R cAMP
T3 construct: expressed in transfected cells

human MC3R [4] = biological target: T3, human MC3R; test: Melanocortin receptor radioligand binding (SPA, [125I]-NDP-α-MSH displacement), MC3R; details: competitive binding, mean (± SEM) of at least three independent experiments, read-out: IC50 hMC3R binding
human MC1R [5] = biological target: T4, human MC1R (Homo sapiens, UniProt Q01726); test: cAMP assay (LANCE) in T-Rex-293 cells expressing MC1R; format: cell-based; details: for Emax: T-REx-293, read-out: % Effect hMC1R cAMP; for EC50: cAMP assay, mean (± SEM) of at least three independent experiments, read-out: EC50 hMC1R cAMP
T4 construct: expressed in transfected cells

human MC1R [6] = biological target: T4, human MC1R; test: Melanocortin receptor radioligand binding (SPA, [125I]-NDP-α-MSH displacement), MC1R; details: competitive binding, mean (± SEM) of at least three independent experiments, read-out: IC50 hMC1R binding
human MC5R = biological target: T5, human MC5R (Homo sapiens, UniProt P33032); test: Melanocortin receptor radioligand binding (SPA, [125I]-NDP-α-MSH displacement), MC5R; details: competitive binding, [125I]-NDP-α-MSH; mean (± SEM) of at least three independent experiments; read-out: IC50 hMC5R binding
T5 construct: expressed in transfected cells; host or cells: HEK293-6E suspension cells, transient expression; membranes

SPSB2 = biological target: T1, SPSB2; test: SPR
[7] = Emax (curve plateau), relative to NDP-α-MSH, NA = No Activity detected, threshold 20% effect

T5 sequence (P33032 whole entry): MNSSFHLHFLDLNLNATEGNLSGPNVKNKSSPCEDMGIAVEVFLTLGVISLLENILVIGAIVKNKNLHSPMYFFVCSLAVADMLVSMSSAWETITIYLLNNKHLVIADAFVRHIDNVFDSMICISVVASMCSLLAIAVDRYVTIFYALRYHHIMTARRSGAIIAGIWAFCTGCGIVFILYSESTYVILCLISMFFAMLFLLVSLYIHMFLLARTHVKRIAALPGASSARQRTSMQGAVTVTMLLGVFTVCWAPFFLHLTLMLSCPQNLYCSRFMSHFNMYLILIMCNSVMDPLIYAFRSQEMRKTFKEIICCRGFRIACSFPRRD
T3 sequence (P41968 whole entry): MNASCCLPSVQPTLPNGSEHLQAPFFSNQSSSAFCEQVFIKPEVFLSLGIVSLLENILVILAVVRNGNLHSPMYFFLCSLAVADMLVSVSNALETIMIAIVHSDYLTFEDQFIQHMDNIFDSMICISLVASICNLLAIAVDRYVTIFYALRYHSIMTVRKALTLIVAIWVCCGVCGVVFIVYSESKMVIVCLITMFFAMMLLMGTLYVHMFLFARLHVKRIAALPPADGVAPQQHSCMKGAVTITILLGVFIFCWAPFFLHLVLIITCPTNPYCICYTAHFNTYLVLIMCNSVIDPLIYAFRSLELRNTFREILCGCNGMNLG
T2 sequence (P32245 whole entry): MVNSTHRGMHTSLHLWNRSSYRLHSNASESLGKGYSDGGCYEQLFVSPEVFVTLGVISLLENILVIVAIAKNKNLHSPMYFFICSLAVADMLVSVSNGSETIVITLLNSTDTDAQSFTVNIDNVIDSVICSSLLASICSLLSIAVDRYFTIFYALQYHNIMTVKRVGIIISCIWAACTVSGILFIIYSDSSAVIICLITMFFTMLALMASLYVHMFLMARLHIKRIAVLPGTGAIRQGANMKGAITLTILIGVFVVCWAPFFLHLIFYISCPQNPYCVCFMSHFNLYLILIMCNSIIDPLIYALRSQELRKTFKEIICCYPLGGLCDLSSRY
T4 sequence (Q01726 whole entry): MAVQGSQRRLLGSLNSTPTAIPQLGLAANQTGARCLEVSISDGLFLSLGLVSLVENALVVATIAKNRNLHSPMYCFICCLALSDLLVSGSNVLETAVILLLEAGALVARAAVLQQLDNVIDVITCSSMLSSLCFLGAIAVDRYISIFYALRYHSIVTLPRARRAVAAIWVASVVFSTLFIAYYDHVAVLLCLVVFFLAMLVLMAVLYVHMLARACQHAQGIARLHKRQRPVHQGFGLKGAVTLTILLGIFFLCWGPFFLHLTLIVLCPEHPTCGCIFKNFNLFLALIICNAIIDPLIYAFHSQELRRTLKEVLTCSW

Row | Molecule | IC50 (human MC4R [1]) [µM] | EC50 (human MC4R [2]) [µM] | EC50 (human MC3R [3]) [µM] | IC50 (human MC3R [4]) [µM] | Emax (human MC1R [5]) [%] | EC50 (human MC1R [5]) [µM] | IC50 (human MC1R [6]) [µM] | IC50 (human MC5R) [µM] | % Effect hMC4R cAMP (human MC4R [2]; [7]) [%] | % Effect hMC3R cAMP (human MC3R [3]; [7]) [%] | % Effect hMC1R cAMP at 100 µM (human MC1R [5]; % effect at 100 µM, compounds not reaching an upper plateau (§)) [%] | Kd (SPSB2) [µM]
1 | C[C@@H]1NC(=O)[C@H](CC(N)=O)NC(=O)[C@@H](Cc2ccccc2)NC(=O)[C@@H](Cc2ccccc2)NC(=O)[C@H](CCCNC(=N)N)NC(=O)[C@H](Cc2ccccc2)N(C)C(=O)[C@@H]2N[C@H](c3ccc(cc3)C(=O)NCCCC[C@@H](C(=O)N[C@@H](Cc3ccc(O)cc3)C(N)=O)NC(=O)[C@H](Cc3ccccc3)NC1=O)[C@@H]1C(=O)N(C)C(=O)[C@@H]12 [C1-major, [I-FRffNAFK ]Y] | 26 ± 2 | > 100 | > 100 | 36 ± 1 | 47 | 1.8 ± 0.3 | 23 ± 1 | 13 ± 1 |  |  |  | 
2 | CN1C(=O)[C@H]2N[C@@H](c3ccc(cc3)C(=O)NCCCC[C@@H](C(=O)NCC(N)=O)NC(=O)[C@H](Cc3ccccc3)NC(=O)[C@H](Cc3ccccc3)NC(=O)[C@H](CCCNC(=N)N)NC(=O)[C@@H]1Cc1ccccc1)[C@H]1C(=O)N(c3ccccc3)C(=O)[C@H]12 [N2-major*, [II-FRFFK ]G] | > 100 | > 100 | > 100 | > 100 | 46 | 14 ± 4 | > 100 | 38 ± 2 |  |  |  | 
3 | COc1ccc(N2C(=O)[C@@H]3[C@H](C2=O)[C@H]2N[C@@H]3c3ccc(cc3)C(=O)NCCCC[C@@H](C(=O)NCC(N)=O)NC(=O)[C@H](CC(N)=O)NC(=O)[C@@H](Cc3ccccc3)NC(=O)[C@@H](Cc3ccccc3)NC(=O)[C@H](CCCNC(=N)N)NC(=O)[C@H](Cc3ccccc3)N(C)C2=O)cc1 [K4-major, [III-FRffNK ]G] | > 100 | 3.7 ± 0.2 | 6.4 ± 1.1 | 57 ± 1 | 85 | 3.9 ± 0.5 | 58 ± 1 | 16 ± 1 | 66 | 26 |  | 
4 | C[C@@H]1NC(=O)[C@H](CC(N)=O)NC(=O)[C@H](Cc2ccccc2)NC(=O)[C@H](Cc2ccccc2)NC(=O)[C@H](CCCNC(=N)N)NC(=O)[C@H](Cc2ccccc2)N(C)C(=O)[C@H]2N[C@@H](c3ccc(cc3)C(=O)NCCCC[C@@H](C(=O)N[C@@H](Cc3ccc(O)cc3)C(N)=O)NC1=O)[C@H]1C(=O)N(c3ccccc3)C(=O)[C@H]12 [F2-minor, [ II-FRFFNAK ]Y] | 91 ± 5 | > 100 | > 100 | 85 ± 6 | 40 | 9.3 ± 3.6 | 81 ± 3 | 6.5 ± 0.9 |  |  |  | 
5 | COc1ccc(N2C(=O)[C@@H]3[C@H](C2=O)[C@H]2N[C@@H]3C(=O)N(C)[C@@H](Cc3ccccc3)C(=O)N[C@@H](CCCNC(=N)N)C(=O)N[C@H](Cc3ccccc3)C(=O)N[C@H](Cc3ccccc3)C(=O)N[C@@H](CC(N)=O)C(=O)N[C@H](C(=O)NCC(N)=O)CCCCNC(=O)c3ccc2cc3)cc1 [K4-minor, [III-FRffNK ]G] | > 100 | > 100 | > 100 | > 100 |  | > 100 | > 100 | 91 ± 3 |  |  | 23 | 
6 | C[C@@H]1NC(=O)[C@H](CC(N)=O)NC(=O)[C@H](Cc2ccccc2)NC(=O)[C@H](Cc2ccccc2)NC(=O)[C@H](CCCNC(=N)N)NC(=O)[C@H](Cc2ccccc2)N(C)C(=O)[C@H]2N[C@@H](c3ccc(cc3)C(=O)NCCCC[C@@H](C(=O)NCC(N)=O)NC(=O)[C@H](Cc3ccccc3)NC1=O)[C@H]1C(=O)N(C)C(=O)[C@H]12 [B2-minor, [ I-FRFFNAFK ]G] | 96 ± 4 | > 100 | > 100 | > 100 | 39 | 10 ± 2 | > 100 | 31 ± 0.4 |  |  |  | 
7 | [NMeL]DINNNKG-NH2 (bridge (positions not given here) via N‑methyl fused di‑pyrrolidine (I); reading uncertain; also: macrocycle via N-methyl fused di-pyrrolidine (I), minor diastereomer) [PepNat D12-minor] |  |  |  |  |  |  |  |  |  |  |  | 0.127
8 | [NMeF]DINNNKG-NH2 (bridge (positions not given here) via N‑methyl fused di‑pyrrolidine (I); reading uncertain; also: macrocycle via N-methyl fused di-pyrrolidine (I)) [PepNat D1-major] |  |  |  |  |  |  |  |  |  |  |  | 0.033
